Data as given in patent US20250333406A1, “SULFONYL CYCLIC DERIVATIVES, AND COMPOSITIONS AND METHODS THEREOF” (Lysoway Therapeutics, Inc., priority 2023, published 2025).

The compounds below were run on TFEB (assay: TFEB Nuclear Translocation Assay). Conditions: read-out: EC50 of TFEB activation.
Format: cell-based

`CC(C)S(=O)(=O)c1ccc(S(=O)(=O)n2nc(N3CCCCC3C3CC3)c3c(Cl)cccc32)cc1` (stereo not drawn) [Compound 63, 4-chloro-3-(2-cyclopropyl-1-piperidyl)-1-(4-isopropylsulfonylphenyl) sulfonyl-indazole] and `CC(C)S(=O)(=O)c1ccc(S(=O)(=O)n2nc(N3CCCCC3C(F)(F)F)c3c(Cl)cccc32)cc1` (stereo not drawn) [Compound 66, 4-chloro-1-(4-isopropylsulfonylphenyl)sulfonyl-3-[2-(trifluoromethyl)-1-piperidyl]indazole] cannot be ordered by EC50: at most 1000 nM for the first, at most 1000 nM for the second.

`CC(=O)N1CCN(c2nn(S(=O)(=O)c3ccc(S(=O)(=O)C(C)C)cc3)c3cccc(Cl)c23)C2(CC2)C1` [Compound 56, 1-[4-[4-chloro-1-(4-isopropylsulfonylphenyl)sulfonyl-indazol-3-yl]-4,7-diazaspiro[2.5]octan-7-yl]ethanone] and `CC(C)S(=O)(=O)c1ccc(S(=O)(=O)n2nc(N3CCN(c4ncccn4)CC34CC4)c3c(Cl)cccc32)cc1` [Compound 65, 4-chloro-1-(4-isopropylsulfonylphenyl) sulfonyl-3-(7-pyrimidin-2-yl-4,7-diazaspiro[2.5]octan-4-yl) indazole] cannot be ordered by EC50: at most 1000 nM for the first, at most 1000 nM for the second.

`CC(C)S(=O)(=O)c1ccc(S(=O)(=O)n2nc(N3CCN(c4ncc(F)cc4F)CC34CC4)c3c(F)cccc32)cc1` [Compound 26, 3-[7-(3,5-difluoro-2-pyridyl)-4,7-diazaspiro [2.5]octan-4-yl]-4-fluoro-1-(4-isopropylsulfonylphenyl) sulfonyl-indazole] and `CC(C)S(=O)(=O)c1ccc(S(=O)(=O)n2nc(N3CCN(c4ncc(F)cc4F)CC34CC4)c3c(Cl)cc(F)cc32)cc1` [Compound 27, 4-chloro-3-[7-(3,5-difluoro-2-pyridyl)-4,7-diazaspiro [2.5]octan-4-yl]-6-fluoro-1-(4-isopropylsulfonylphenyl)sulfonyl-indazole] cannot be ordered by EC50: at most 1000 nM for the first, at most 1000 nM for the second.

`CC(C)(C)c1ncc(S(=O)(=O)n2nc(N3CCN(c4ncc(F)cn4)CC34CC4)c3c(Cl)cccc32)cn1` [Compound 100, 1-(2-tert-butylpyrimidin-5-yl) sulfonyl-4-chloro-3-[7-(5-fluoropyrimidin-2-yl)-4,7-diazaspiro [2.5]octan-4-yl]indazole] and `CC(C)C(F)(F)c1ccc(S(=O)(=O)n2nc(N3CCN(c4ncc(F)cn4)CC34CC4)c3c(Cl)cccc32)cc1` [Compound 90, 4-chloro-1-[4-(1,1-difluoro-2-methyl-propyl)phenyl]sulfonyl-3-[7-(5-fluoropyrimidin-2-yl)-4,7-diazaspiro [2.5]octan-4-yl]indazole] cannot be ordered by EC50: at most 1000 nM for the first, at most 1000 nM for the second.

`CC(C)S(=O)(=O)n1ccc(S(=O)(=O)n2nc(N3CCC(F)CC34CC4)c3c(Cl)cc(F)cc32)c1` (stereo not drawn) [Compound 192, 4-chloro-6-fluoro-3-(7-fluoro-4-azaspiro [2.5]octan-4-yl)-1-(1-isopropylsulfonylpyrrol-3-yl) sulfonyl-indazole] and `CC(C)S(=O)(=O)n1ccc(S(=O)(=O)n2nc(N3CCN(c4ncccc4F)CC34CC4)c3c(Cl)cc(F)cc32)c1` [Compound 162, 4-chloro-6-fluoro-3-[7-(3-fluoro-2-pyridyl)-4,7-diazaspiro [2.5]octan-4-yl]-1-(1-isopropylsulfonylpyrrol-3-yl) sulfonyl-indazole] cannot be ordered by EC50: at most 1000 nM for the first, at most 1000 nM for the second.

`O=S(=O)(c1ccc(S(=O)(=O)n2nc(N3CCN(c4ncc(F)cn4)CC34CC4)c3c(Cl)cccc32)cc1)C1CC1` [Compound 29, 4-chloro-1-((4-(cyclopropylsulfonyl)phenyl)sulfonyl)-3-(7-(5-fluoropyrimidin-2-yl)-4,7-diazaspiro [2.5]octan-4-yl)-1H-indazole] and `CC(C)S(=O)(=O)c1ccc(S(=O)(=O)n2nc(N3CCN(c4ncc(F)cn4)CC34CC4)c3c(F)cccc32)cc1` [Compound 16, 4-fluoro-3-(7-(5-fluoropyrimidin-2-yl)-4,7-diazaspiro [2.5]octan-4-yl)-1-((4-(isopropylsulfonyl)phenyl)sulfonyl)-1H-indazole] cannot be ordered by EC50: at most 1000 nM for the first, at most 1000 nM for the second.

`CC(C)S(=O)(=O)n1ccc(S(=O)(=O)n2nc(N3CCN(c4ncc(Cl)cc4F)CC34CC4)c3c(Cl)ccc(F)c32)c1` [Compound 147, 4-chloro-3-[7-(5-chloro-3-fluoro-2-pyridyl)-4,7-diazaspiro [2.5]octan-4-yl]-7-fluoro-1-(1-isopropylsulfonylpyrrol-3-yl) sulfonyl-indazole] and `CC(C)S(=O)(=O)n1ccc(S(=O)(=O)n2nc(N3CCN(c4ncc(F)cn4)CC34CC4)c3c(F)ccc(F)c32)c1` [Compound 149, 4,7-difluoro-3-(7-(5-fluoropyrimidin-2-yl)-4,7-diazaspiro [2.5]octan-4-yl)-1-((1-(isopropylsulfonyl)-1H-pyrrol-3-yl)sulfonyl)-1H-indazole] cannot be ordered by EC50: at most 1000 nM for the first, at most 1000 nM for the second.

`CC(C)S(=O)(=O)c1ccc(S(=O)(=O)n2nc(N3CCC(F)(F)CC3C(F)(F)F)c3c(Cl)cccc32)cc1` (stereo not drawn) [Compound 85, 4-chloro-3-[4,4-difluoro-2-(trifluoromethyl)-1-piperidyl]-1-(4-isopropylsulfonylphenyl) sulfonyl-indazole] and `CC(C)S(=O)(=O)c1ccc(S(=O)(=O)n2nc(N3CCN(c4ncc(F)cn4)C[C@@H]3C3CC3)c3c(Cl)cccc32)cc1` [Compound 60, (S)-4-chloro-3-(2-cyclopropyl-4-(5-fluoropyrimidin-2-yl)piperazin-1-yl)-1-((4-(isopropylsulfonyl)phenyl)sulfonyl)-1H-indazole] cannot be ordered by EC50: at most 1000 nM for the first, at most 1000 nM for the second.

`CC(C)S(=O)(=O)n1ccc(S(=O)(=O)n2nc(N3CCN(c4ncc(F)cn4)CC34CC4)c3c(F)cc(Cl)cc32)c1` [Compound 167, 6-chloro-4-fluoro-3-(7-(5-fluoropyrimidin-2-yl)-4,7-diazaspiro [2.5]octan-4-yl)-1-((1-(isopropylsulfonyl)-1H-pyrrol-3-yl)sulfonyl)-1H-indazole] and `CC(C)S(=O)(=O)n1ccc(S(=O)(=O)n2nc(N3CCN(c4ncc(F)cn4)CC3(C)C)c3c(Cl)cc(F)cc32)c1` [Compound 185, 4-chloro-6-fluoro-3-[4-(5-fluoropyrimidin-2-yl)-2,2-dimethyl-piperazin-1-yl]-1-(1-isopropylsulfonylpyrrol-3-yl) sulfonyl-indazole] cannot be ordered by EC50: at most 1000 nM for the first, at most 1000 nM for the second.

`CC(C)S(=O)(=O)c1ccc(S(=O)(=O)n2nc(N3CCN(c4ccc(F)cn4)CC34CC4)c3c(F)cccc32)cc1` [Compound 25, 4-fluoro-3-[7-(5-fluoro-2-pyridyl)-4,7-diazaspiro [2.5]octan-4-yl]-1-(4-isopropylsulfonylphenyl) sulfonyl-indazole] and `CC(C)(C)S(=O)(=O)c1ccc(S(=O)(=O)n2nc(N3CCN(c4ccc(F)cn4)CC34CC4)c3c(Cl)cccc32)s1` [Compound 48, 1-[(5-tert-butylsulfonyl-2-thienyl)sulfonyl]-4-chloro-3-[7-(5-fluoro-2-pyridyl)-4,7-diazaspiro [2.5]octan-4-yl]indazole] cannot be ordered by EC50: at most 1000 nM for the first, at most 1000 nM for the second.

First: CC(F)(F)c1ccc(S(=O)(=O)n2nc(N3CCC4(CCO4)CC34CC4)c3c(Cl)cccc32)cc1 (stereo not drawn) [Compound 88, 11-[4-chloro-1-[4-(1,1-difluoroethyl)phenyl]sulfonyl-indazol-3-yl]-8-oxa-11-azadispiro [2.1.35.33]undecane]
Second: O=S(=O)(c1ccc(OC(F)F)cc1)n1nc(N2CCN(c3ncc(F)cn3)CC23CC3)c2c(Cl)cccc21 [Compound 115, 4-chloro-1-[4-(difluoromethoxy)phenyl]sulfonyl-3-[7-(5-fluoropyrimidin-2-yl)-4,7-diazaspiro[2.5]octan-4-yl]indazole]
The EC50 of the first is higher: at least 10000 nM for the first, at most 1000 nM for the second. The second is the more potent here.

`Cc1cc(S(=O)(=O)n2nc(N3CCN(c4ncc(F)cc4F)CC34CC4)c3c(Cl)cc(F)cc32)c(C)n1S(=O)(=O)C(C)C` [Compound 160, 4-chloro-3-[7-(3,5-difluoro-2-pyridyl)-4,7-diazaspiro [2.5]octan-4-yl]-6-fluoro-1-(1-isopropylsulfonyl-2,5-dimethyl-pyrrol-3-yl) sulfonyl-indazole] and `CC(C)S(=O)(=O)c1ccc(S(=O)(=O)n2nc(N3CCN(c4ncc(F)cc4F)CC34CC4)c3c(Cl)cccc32)s1` [Compound 45, 4-chloro-3-[7-(3,5-difluoro-2-pyridyl)-4,7-diazaspiro [2.5]octan-4-yl]-1-[(5-isopropylsulfonyl-2-thienyl)sulfonyl]indazole] cannot be ordered by EC50: at most 1000 nM for the first, at most 1000 nM for the second.

First: CC1COCC(C)N1c1nn(S(=O)(=O)c2ccn(S(=O)(=O)C(C)C)c2)c2cccc(Cl)c12 (stereo not drawn) [Compound 138, 4-[4-chloro-1-(1-isopropylsulfonylpyrrol-3-yl)sulfonyl-indazol-3-yl]-3,5-dimethyl-morpholine]
Second: CC(C)S(=O)(=O)n1ccc(S(=O)(=O)n2nc(N3CCN(c4ccncc4)CC34CC4)c3c(Cl)cc(F)cc32)c1 [Compound 176, 4-chloro-6-fluoro-1-(1-isopropylsulfonylpyrrol-3-yl) sulfonyl-3-[7-(4-pyridyl)-4,7-diazaspiro [2.5]octan-4-yl]indazole]
The EC50 of the first is lower: at most 1000 nM for the first, at least 10000 nM for the second. The first is the more potent here.

`CC(C)S(=O)(=O)n1ccc(S(=O)(=O)n2nc(N3CCN(c4ccc(F)cc4)CC34CC4)c3c(Cl)cc(F)cc32)c1` [Compound 175, 4-chloro-6-fluoro-3-(7-(4-fluorophenyl)-4,7-diazaspiro [2.5]octan-4-yl)-1-((1-(isopropylsulfonyl)-1H-pyrrol-3-yl)sulfonyl)-1H-indazole] and `CC(C)S(=O)(=O)c1ccc(S(=O)(=O)n2nc(N3CCN(c4ncc(F)cn4)CC34CC4)c3c(Cl)cc(F)cc32)s1` [Compound 38, 4-chloro-6-fluoro-3-(7-(5-fluoropyrimidin-2-yl)-4,7-diazaspiro [2.5]octan-4-yl)-1-((5-(isopropylsulfonyl)thiophen-2-yl)sulfonyl)-1H-indazole] cannot be ordered by EC50: at most 1000 nM for the first, at most 1000 nM for the second.

`CC(C)S(=O)(=O)c1ccc(S(=O)(=O)n2nc(N3CCN(c4ncc(F)cc4F)CC34CC4)c3c(Cl)ccc(F)c32)s1` [Compound 31, 4-chloro-3-(7-(3,5-difluoropyridin-2-yl)-4,7-diazaspiro [2.5]octan-4-yl)-7-fluoro-1-((5-(isopropylsulfonyl)thiophen-2-yl)sulfonyl)-1H-indazole] and `O=S(=O)(c1ccc(SC(F)F)cc1)n1nc(N2CCN(c3ncc(F)cn3)CC23CC3)c2c(Cl)cccc21` [Compound 93, 4-chloro-1-[4-(difluoromethylsulfanyl)phenyl]sulfonyl-3-[7-(5-fluoropyrimidin-2-yl)-4,7-diazaspiro [2.5]octan-4-yl]indazole] cannot be ordered by EC50: at most 1000 nM for the first, at most 1000 nM for the second.
